Experimental data: patent US20030086986A1, “Ophthalmic, pharmaceutical and other healthcare preparations with naturally occurring plant compounds, extracts and derivatives” (priority 1998, published 2003)
Read-outs that look alike come from different tables or passages of the source.

Key:
Assay type in all cases: cell-based
Candida albicans = assay: Log kill test of preservative/disinfectant formulae (challenge inoculum, plating over time)
Description: (§1) Disinfectant and preservative tests are most often performed by challenging the preparation with a concentrated inoculum (e.g., 10^5-10^6 colony forming units (cfu)/ml) of each test organism. Over time samples are taken and plated on a growth medium to estimate the number of live organisms remaining at each time point.
(§2) The method for evaluating the effectiveness of a disinfectant for contact lenses generally requires measuring the ability of the agent to reduce the numbers of viable infective organisms during a period of time consistent with the normal period of storage of contact lenses between wearing times. This reduction of numbers of organisms is typically reported in terms of the change in the common logarithm (base 10 logarithm) of the microbial population as a result of exposure to the antimicrobial or disinfecting agent. For example, if the agent has effected a reduction in the concentration of a particular organisms in a challenge solution from 10^6 colony forming units (cfu) per milliliter (ml) to 10^2 cfu/ml within six hours of exposure then the change, or “log reduction”, of the organism as a result of exposure to the agent would be 4.0 (logs). In other words, the number of viable organisms have been reduced to one ten-thousandth of the original level.
(§3) In procedures for verifying the effectiveness of ophthalmic antimicrobial agents generally recognized guidelines call for the use of Candida albicans (a yeast), Fusarium solani or Aspergillus niger (both molds), Pseudomonas aeruginosa (a Gram-negative bacterium), Staphylococcus aureus (a Gram-positive bacterium), Serratia marcescens (a Gram-negative bacterium) and Escherichia coli (a bacterium common in the human gastrointestinal tract).
(§4) Various compounds/extracts were tested in the presence of either a phosphate or a borate-buffered solution. The test organisms included (S. aureus.=Staphylococcus aureus; Ps. aeruginosa=Pseudomonas aeruginosa; E. coli=Escherichia coli; C. albicans.=Candida albicans; and A. niger=Aspergillus niger) and inspected at various time intervals to determine the “log kill” of the various formulations.

Aspergillus niger = assay: as above
Description: as §1, §2, §3, §4

L929 cell = assay: Cytotoxicity assay: high water-content soft contact lenses cycled five days in test solution, then L929 cell cytotoxicity model
Description: The present inventors reported earlier on the anti-cytotoxic properties of certain natural products. Experiments were under taken to confirm the anti-cytotoxic effects of Allantoin in particular. […] Besides the usual microbial tests, the material was also used in a cytotoxicity assay, which consisted of cycling high water-content soft contact lenses for five days in each test solution. Then the solution saturated lenses were tested in a L929 cell cytotoxicity model. Cytotoxicity was rated from 0 to 5 with 2 or greater indicating cytotoxicity.

Serratia marcescens = assay: Log kill test of disinfectant formulae (6 hours)
Description: as §1
The method for evaluating the effectiveness of a disinfectant for contact lenses generally requires measuring the ability of the agent to reduce the numbers of viable infective organisms during a period of time consistent with the normal period of storage of contact lenses between wearing times. This reduction of numbers of organisms is typically reported in terms of the change in the common logarithm (base 10 logarithm) of the microbial population as a result of exposure to the antimicrobial or disinfecting agent. For example, if the agent has effected a reduction in the concentration of a particular organisms in a challenge solution from 10^6 colony forming units (cfu) per milliliter (ml) to 10^2 cfu/ml within six hours of exposure then the change, or “log reduction”, of the organism as a result of exposure to the agent would be 4.0 (logs). In other words, the number of viable organisms have been reduced to one ten-thousandth of the original level. […]

Staphylococcus aureus = assay: Log kill test of preservative/disinfectant formulae (challenge inoculum, plating over time)
Description: as §1, §2, §3, §4

[1] = system: S. aureus, Ps. aeruginosa, E. coli, C. albicans, A. niger; assay: Preservative/disinfectant effectiveness against the panel of test organisms (USP Category 1A Preservative Effectiveness Test); settings: for Effective Concentration (ppm) meeting the USP Category 1A Preservative Effectiveness Test requirements: summary of formulae that meet the requirements
Description: as §1, §3, §4
A recognized standard for evaluating the effectiveness of a preservation agent in contain in the USP. For the reader's convenience the formulae, which meet the USP Category 1A Preservative Effectiveness Test requirements, are summarized in Table 10.

[2] = Cytotoxicity test, USP 24 <87> Biological Reactivity Tests, In Vitro, USP Elution
Description: Cytotoxicity studies were also performed to determine the potential of these natural compounds, extracts and derivatives for irritation and discomfort when used as disinfecting or preservative agents. The cytotoxicity test analysis was performed in accordance with USP 24 <87> Biological Reactivity Tests, In Vitro, and USP Elution. Two ml of each sample were diluted with 10 ml of 1× MEM. The biological reactivity were described and rated as 0 (no reactivity), 1 (slight reactivity), 2 (mild reactivity), 3 (moderate reactivity), 4 (severe reactivity).

Compound: NC(=O)NC1NC(=O)NC1=O (centres unmarked) [Allantoin]
- Effectiveness against Candida albicans, in words (Candida albicans): quite effective
- Effectiveness against Aspergillus niger, in words (Aspergillus niger): quite effective
- Cytotoxicity in L929 cell model, in words (L929 cell; lenses cycled five days in test solution): mitigate the cytotoxic characteristics of PHMB
- Effectiveness against Serratia marcescens, in words (Serratia marcescens): effective to augment the killing

Compound: COc1ccc2cc3[n+](cc2c1OC)CCc1cc2c(cc1-3)OCO2 [Berberine]
- Effectiveness against Candida albicans, in words (Candida albicans): remarkably effective
- Effectiveness against Staphylococcus aureus, in words (Staphylococcus aureus): remarkably effective
- Effectiveness against Aspergillus niger, in words (Aspergillus niger): remarkably effective

Compound: O=C(/C=C/c1ccc(O)c(O)c1)O[C@@H]1C[C@](O)(C(=O)O)C[C@@H](O)[C@H]1O [Chlorogenic Acid]
- Overall disinfectant/preservative effectiveness against the test organisms, in words [1]: quite effective
- Effective Concentration (ppm) meeting the USP Category 1A Preservative Effectiveness Test requirements [1]: 1000 ppm

Compound: COc1cc(/C=C/C(=O)O)ccc1O [Ferulic Acid]
- Overall disinfectant/preservative effectiveness against the test organisms, in words [1]: quite effective
- Effective Concentration (ppm) meeting the USP Category 1A Preservative Effectiveness Test requirements [1]: 1000 ppm
- Effectiveness against Candida albicans, in words (Candida albicans): better activity

Compound: OCCc1ccc(O)c(O)c1 [Hydroxytyrosol, 3,4-dihydroxy-phenylethanol]
- Effective Concentration (ppm) meeting the USP Category 1A Preservative Effectiveness Test requirements [1]: 200 ppm
- Grade (biological reactivity) ([2]; 33.3 ppm): 0

Compound: C/C=C1/[C@H](O[C@@H]2O[C@H](CO)[C@@H](O)[C@H](O)[C@H]2O)OC=C(C(=O)OC)[C@H]1CC(=O)OCCc1ccc(O)c(O)c1 [Oleuropein]
- Grade (biological reactivity) ([2]; 8.3 ppm): 0
- Grade (biological reactivity) ([2]; 33.3 ppm): 0
- Grade (biological reactivity) ([2]; 166.7 ppm): 0

Compound: O.O.O=c1c(O)c(-c2ccc(O)c(O)c2)oc2cc(O)cc(O)c12 [Quercetin Dihydrate]
- Overall disinfectant/preservative effectiveness against the test organisms, in words ([1]; statement of the text, listed as Quercetin dihydrate, Dihydrate): extremely broad effectiveness
- Overall disinfectant/preservative effectiveness against the test organisms, in words ([1]; statement of the text, listed as Quercetin, Dihydrate): very good to excellent control

Compound: Oc1ccc(C=Cc2cc(O)cc(O)c2)cc1 [Resveratrol]
- Overall disinfectant/preservative effectiveness against the test organisms, in words [1]: wide range of effectiveness

Compound: polyhexamethyl biguanide [PHMB, reference compound]
- Overall disinfectant/preservative effectiveness against the test organisms, in words [1]: extremely effective against the tested bacteria
- Effectiveness against Candida albicans, in words (Candida albicans): only moderately effective
- Cytotoxicity in L929 cell model, in words (L929 cell): significant level of cytotoxicity
